From ChEMBL document CHEMBL3091394, “Novel tacrine-ebselen hybrids with improved cholinesterase inhibitory, hydrogen peroxide and peroxynitrite scavenging activity” (Bioorg Med Chem Lett, 2013)
Activity calls are given as the source filed them. The rule behind the calls is not given here.

Experiments:
Acetylcholinesterase [1] = molecular target: Acetylcholinesterase (Electrophorus electricus, UniProt O42275)
Description: Inhibition of electric eel AChE using acetylthiocholine chloride as substrate preincubated for 15 mins by Ellman's method

Cholinesterase = Cholinesterase (Equus caballus, UniProt P81908)
Description: Inhibition of equine serum BuChE using butylthiocholine chloride as substrate preincubated for 15 mins by Ellman's method

[2] = Antioxidant activity assessed as hydrogen peroxide radical scavenging activity at 20 to 100 uM after 10 hrs by horseradish peroxidase assay; format: functional
Acetylcholinesterase [3] = molecular target: Acetylcholinesterase (Homo sapiens, UniProt P22303); experiment: Inhibition of human AChE using acetylthiocholine chloride as substrate preincubated for 15 mins by Ellman's method
Chain of Acetylcholinesterase (Homo sapiens, UniProt P22303) (P22303 whole entry): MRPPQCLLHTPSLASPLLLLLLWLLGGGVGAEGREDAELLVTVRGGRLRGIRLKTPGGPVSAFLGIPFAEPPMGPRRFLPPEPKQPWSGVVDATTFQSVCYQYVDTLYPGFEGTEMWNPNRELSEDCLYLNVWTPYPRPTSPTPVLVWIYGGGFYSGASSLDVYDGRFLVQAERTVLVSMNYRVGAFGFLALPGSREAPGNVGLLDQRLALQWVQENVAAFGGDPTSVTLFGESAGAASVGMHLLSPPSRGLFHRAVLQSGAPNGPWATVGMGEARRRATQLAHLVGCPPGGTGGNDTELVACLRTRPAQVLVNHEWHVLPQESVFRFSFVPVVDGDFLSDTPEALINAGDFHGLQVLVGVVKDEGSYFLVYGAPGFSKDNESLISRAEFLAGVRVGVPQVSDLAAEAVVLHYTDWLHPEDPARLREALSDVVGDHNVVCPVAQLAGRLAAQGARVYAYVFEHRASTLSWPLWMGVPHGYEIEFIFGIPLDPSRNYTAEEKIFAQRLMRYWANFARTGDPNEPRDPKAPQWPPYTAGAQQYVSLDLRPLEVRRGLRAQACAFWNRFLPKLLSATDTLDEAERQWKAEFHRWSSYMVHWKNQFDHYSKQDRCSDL

[4] = Antioxidant activity assessed as pyrogallol red dye bleaching-induced peroxynitrite scavenging activity up to 62.5 uM relative to ebselen; format: functional
[5] = Antioxidant activity assessed as hydrogen peroxide radical scavenging activity at 12.5 uM after 10 hrs by horseradish peroxidase assay; format: functional
[6] = Antioxidant activity assessed as hydrogen peroxide radical scavenging activity at 25 uM after 10 hrs by horseradish peroxidase assay; format: functional
[7] = Cytotoxicity against human HSC assessed as cell viability at 5 to 10 uM after 24 hrs by MTT assay

Chain of Acetylcholinesterase (Electrophorus electricus, UniProt O42275) (O42275 whole entry): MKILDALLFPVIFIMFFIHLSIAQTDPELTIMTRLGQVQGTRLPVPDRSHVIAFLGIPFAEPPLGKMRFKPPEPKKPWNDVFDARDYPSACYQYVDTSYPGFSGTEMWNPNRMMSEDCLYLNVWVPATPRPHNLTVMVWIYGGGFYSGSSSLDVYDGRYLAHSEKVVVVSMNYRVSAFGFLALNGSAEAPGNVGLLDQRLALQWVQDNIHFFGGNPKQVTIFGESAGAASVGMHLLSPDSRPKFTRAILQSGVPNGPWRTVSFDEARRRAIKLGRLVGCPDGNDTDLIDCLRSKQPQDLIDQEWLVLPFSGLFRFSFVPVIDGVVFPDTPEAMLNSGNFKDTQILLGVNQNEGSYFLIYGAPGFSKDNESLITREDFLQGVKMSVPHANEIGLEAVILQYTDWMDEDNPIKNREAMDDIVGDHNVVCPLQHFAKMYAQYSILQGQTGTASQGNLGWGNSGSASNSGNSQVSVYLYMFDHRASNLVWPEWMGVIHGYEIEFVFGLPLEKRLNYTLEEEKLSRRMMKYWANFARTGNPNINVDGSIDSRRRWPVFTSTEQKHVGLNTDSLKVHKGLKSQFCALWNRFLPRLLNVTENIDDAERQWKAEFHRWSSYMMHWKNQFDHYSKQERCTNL
Chain of Cholinesterase (P81908 whole entry): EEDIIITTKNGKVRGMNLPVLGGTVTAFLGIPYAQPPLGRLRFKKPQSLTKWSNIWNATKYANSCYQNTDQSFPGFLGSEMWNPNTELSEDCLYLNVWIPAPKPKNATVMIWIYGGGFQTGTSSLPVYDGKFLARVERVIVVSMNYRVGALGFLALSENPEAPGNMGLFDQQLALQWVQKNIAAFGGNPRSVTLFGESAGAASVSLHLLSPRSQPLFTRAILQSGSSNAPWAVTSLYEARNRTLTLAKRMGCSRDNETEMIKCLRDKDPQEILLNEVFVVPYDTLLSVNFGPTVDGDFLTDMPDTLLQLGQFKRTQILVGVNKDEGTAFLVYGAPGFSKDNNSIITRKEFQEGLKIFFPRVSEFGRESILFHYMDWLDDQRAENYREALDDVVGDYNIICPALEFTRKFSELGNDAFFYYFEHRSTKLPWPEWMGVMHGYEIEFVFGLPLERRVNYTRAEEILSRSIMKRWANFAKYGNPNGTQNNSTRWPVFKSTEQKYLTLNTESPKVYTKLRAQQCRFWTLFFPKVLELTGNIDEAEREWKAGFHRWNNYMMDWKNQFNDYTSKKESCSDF

Structure (SMILES)	IC50 (Acetylcholinesterase [1])	IC50 (Cholinesterase)	Activity [2]	IC50 (Acetylcholinesterase [3])	Ratio [4]	Activity [5]	Activity [6]	Activity [7]
O=c1c2ccccc2[se]n1CCNc1c2c(nc3ccccc13)CCCC2	657 nM	38.9 nM	–	–	–	–	–	–
COc1cc2[se]n(CCCCCCNc3c4c(nc5ccccc35)CCCC4)c(=O)c2cc1OC	2.55 nM	2.8 nM	Active	15.1 nM	1.26	Active	83.7%	Non-toxic
O=c1c2ccccc2[se]n1CCCCCCCCCNc1c2c(nc3ccccc13)CCCC2	32 nM	25.8 nM	–	–	–	–	–	–
O=c1c2ccccc2[se]n1CCCCCCCCNc1c2c(nc3ccccc13)CCCC2	24.1 nM	16.6 nM	–	–	–	–	–	–
c1ccc2c(NCCCCCCCNc3c4c(nc5ccccc35)CCCC4)c3c(nc2c1)CCCC3	0.17 nM	4.08 nM	–	–	–	–	–	–
O=c1c2ccccc2[se]n1CCCCCCNc1c2c(nc3ccccc13)CCCC2	6.32 nM	4.37 nM	Active	19.5 nM	1.17	Active	70%	–
O=c1c2ccccc2[se]n1CCCCCNc1c2c(nc3ccccc13)CCCC2	70.8 nM	4.52 nM	–	–	–	–	–	–
O=c1c2ccccc2[se]n1CCCNc1c2c(nc3ccccc13)CCCC2	423 nM	28.5 nM	–	–	–	–	–	–
O=c1c2ccccc2[se]n1-c1ccccc1	–	–	Active	–	–	Active	89.7%	–
O=c1c2ccccc2[se]n1CCCCCCCNc1c2c(nc3ccccc13)CCCC2	26.5 nM	14 nM	–	–	–	–	–	–
O=c1c2ccccc2[se]n1CCCCNc1c2c(nc3ccccc13)CCCC2	152 nM	4.94 nM	–	–	–	–	–	–
